In the assay the target is T1, rat NaPi-2b (Rattus norvegicus, UniProt Q9JJ09).
T1 construct: expressed in transfected cells; host or cells: Xenopus oocytes injected with cRNA
T1 sequence (Q9JJ09 1-695): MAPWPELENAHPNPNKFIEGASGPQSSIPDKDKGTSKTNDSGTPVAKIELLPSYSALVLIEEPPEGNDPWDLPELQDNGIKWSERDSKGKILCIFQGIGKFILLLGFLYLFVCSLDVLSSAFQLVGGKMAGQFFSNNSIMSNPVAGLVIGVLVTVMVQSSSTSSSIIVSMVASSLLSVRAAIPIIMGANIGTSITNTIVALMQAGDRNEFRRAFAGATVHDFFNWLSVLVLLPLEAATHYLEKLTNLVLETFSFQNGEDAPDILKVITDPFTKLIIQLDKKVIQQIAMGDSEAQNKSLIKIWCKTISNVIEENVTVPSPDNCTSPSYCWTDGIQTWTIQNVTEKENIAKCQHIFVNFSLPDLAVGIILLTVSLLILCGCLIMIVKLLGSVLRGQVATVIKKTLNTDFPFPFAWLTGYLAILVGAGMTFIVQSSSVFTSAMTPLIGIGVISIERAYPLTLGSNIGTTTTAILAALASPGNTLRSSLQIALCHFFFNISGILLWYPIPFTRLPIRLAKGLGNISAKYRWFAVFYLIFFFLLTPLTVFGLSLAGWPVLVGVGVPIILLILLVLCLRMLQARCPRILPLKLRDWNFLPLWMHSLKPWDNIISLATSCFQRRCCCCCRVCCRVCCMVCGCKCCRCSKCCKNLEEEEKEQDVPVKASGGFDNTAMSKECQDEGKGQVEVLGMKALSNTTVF
As to the kind of experiment: Sodium-dependent phosphate uptake of Xenopus oocytes which expressed NaPi-2b (32P). The settings on record: for IC50: Xenopus oocytes expressing rat NaPi-2b, 32P radioactive phosphorus, read-out: IC50 (phosphate uptake inhibitory activity). The class given is cell-based. An outline of the steps:
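Rat NaPi-2b cloned from small-intestine cDNA; cRNA injected into Xenopus oocytes, expression for 2 days. Phosphate uptake inhibition measured with 32P; percent inhibition at 300 μM and 100 μM read from the same inhibition curve.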

SMILES strings stand for the structures.

With `Cc1ccc(/C=N/n2c(-c3cccc(CSc4nc[nH]n4)c3)nc3sc4c(c3c2=O)CCCC4)cc1C` [Compound 646, 3-[(3,4-Dimethyl-benzylidene-)-amino]-2-[3-(1H-[1,2,4]triazol-3-ylsulfanylmethyl)-phenyl]-5,6,7,8-tetrahydro-3H-benzo[4,5]thieno[2,3-d]pyrimidin-4-one], the half-inhibitory concentration (IC50) is 1.77 µM. As for `Cc1ccc(/C=N/n2c(-c3cccc(CSc4nc[nH]n4)c3)nc3sc4c(c3c2=O)CCCC4)cc1` [Compound 647, 3-[(4-Methyl-benzylidene-)-amino]-2-[3-(1H-[1,2,4]triazol-3-ylsulfanylmethyl)-phenyl]-5,6,7,8-tetrahydro-3H-benzo[4,5]thieno[2,3-d]pyrimidin-4-one], the IC50 came to 5.62 µM. Consider `O=c1c2c3c(sc2nc(-c2cccc(CSc4nc[nH]n4)c2)n1/N=C/c1ccc(F)cc1)CCCC3` [Compound 648, 3-[(4-Fluoro-benzylidene-)-amino]-2-[3-(1H-[1,2,4]triazol-3-ylsulfanylmethyl)-phenyl]-5,6,7,8-tetrahydro-3H-benzo[4,5]thieno[2,3-d]pyrimidin-4-one], for which the IC50 turned out to be 2.04 µM. The same measure, in the same setting: for `O=c1c2c3c(sc2nc(-c2cccc(CSc4nc[nH]n4)c2)n1/N=C/c1cccc(F)c1)CCCC3` [Compound 649, 3-[(3-Fluoro-benzylidene)-amino]-2-[3-(1H-[1,2,4]triazol-3-ylsulfanylmethyl)-phenyl]-5,6,7,8-tetrahydro-3H-benzo[4,5]thieno[2,3-d]pyrimidin-4-one] the value was 2.69 µM. On the same count and under the same terms, for `O=c1c2c3c(sc2nc(-c2cccc(CSc4nc[nH]n4)c2)n1/N=C/c1ccc(Cl)c(C(F)(F)F)c1)CCCC3` [Compound 650, 3-[(4-Chloro-3-trifluoromethyl-benzylidene)-amino]-2-[3-(1H-[1,2,4]triazol-3-ylsulfanylmethyl)-phenyl]-5,6,7,8-tetrahydro-3H-benzo[4,5]thieno[2,3-d]pyrimidin-4-one] the value was 0.95 µM; for `COc1ccc(/C=N/n2c(-c3cccc(CSc4nc[nH]n4)c3)nc3sc4c(c3c2=O)CCCC4)cc1` [Compound 651, 3-[(4-Methoxy-benzylidene)-amino]-2-[3-(1H-[1,2,4]triazol-3-ylsulfanylmethyl)-phenyl]-5,6,7,8-tetrahydro-3H-benzo[4,5]thieno[2,3-d]pyrimidin-4-one], 263 µM; for `CCN(CC)CCN(Cc1cccc(C(=O)Nc2sc3c(c2C(=O)N/N=C/c2ccc(C)c(C)c2)CCCC3)c1)C(C)=O` [Compound 652, 3-{[Acetyl-(2-diethylamino-ethyl)-amino]-methyl}-N-[3-(3,4-dimethyl-benzylidene-hydrazinocarbonyl)-4,5,6,7-tetrahydro-benzo[b]thiophen-2-yl]-benzamide], 0.72 µM.

For `CCN(CC)CCN(Cc1cccc(C(=O)Nc2sc3c(c2C(=O)N/N=C/c2ccc(C)cc2)CCCC3)c1)C(C)=O` [Compound 653, 3-{[Acetyl-(2-diethylamino-ethyl)-amino]-methyl}-N-[3-(4-methyl-benzylidene-hydrazinocarbonyl)-4,5,6,7-tetrahydro-benzo[b]-thiophen-2-yl]-benzamide], the IC50 was determined as 1.1 µM. Same read-out and setting: for `CCN(CC)CCN(Cc1cccc(C(=O)Nc2sc3c(c2C(=O)N/N=C/c2ccc(F)cc2)CCCC3)c1)C(C)=O` [Compound 654, 3-{[Acetyl-(2-diethylamino-ethyl)-amino]-methyl}-N-[3-(4-fluoro-benzylidene-hydrazinocarbonyl)-4,5,6,7-tetrahydro-benzo[b]-thiophen-2-yl]-benzamide] the value was 2.03 µM; for `CCN(CC)CCN(Cc1cccc(C(=O)Nc2sc3c(c2C(=O)N/N=C/c2cccc(F)c2)CCCC3)c1)C(C)=O` [Compound 655, 3-{[Acetyl-(2-diethylamino-ethyl)-amino]-methyl}-N-[3-(3-fluoro-benzylidene-hydrazinocarbonyl)-4,5,6,7-tetrahydro-benzo[b]-thiophen-2-yl]-benzamide], 1.58 µM. With `CCN(CC)CCN(Cc1cccc(C(=O)Nc2sc3c(c2C(=O)N/N=C/c2ccc(Cl)c(C(F)(F)F)c2)CCCC3)c1)C(C)=O` [Compound 656, 3-{[Acetyl-(2-diethylamino-ethyl)-amino]-methyl}-N-[3-(4-chloro-3-trifluoromethyl-benzylidene-hydrazinocarbonyl)-4,5,6,7-tetrahydro-benzo[b]thiophen-2-yl]-benzamide], the 50% inhibitory concentration (IC50) was found to be 2.98 µM. Same read-out and setting: for `CCN(CC)CCN(Cc1cccc(C(=O)Nc2sc3c(c2C(=O)N/N=C/c2ccc(OC)cc2)CCCC3)c1)C(C)=O` [Compound 657, 3-{[Acetyl-(2-diethylamino-ethyl)-amino]-methyl}-N-[3-(4-methoxy-benzylidene-hydrazinocarbonyl)-4,5,6,7-tetrahydro-benzo[b]thiophen-2-yl]-benzamide] the value was 2.63 µM; for `Cc1ccc(/C=N/NC(=O)c2ccsc2NC(=O)c2cccc(CSCCCO)c2)cc1C` [Compound 658, N-[3-(3,4-Dimethyl-benzylidene-hydrazinocarbonyl)-thiophen-2-yl]-3-(3-hydroxy-propylsulfanylmethyl)-benzamide], less than 3 µM; for `Cc1ccc(/C=N/NC(=O)c2ccsc2NC(=O)c2cccc(CSCCCO)c2)cc1` [Compound 659, 3-(3-Hydroxy-propylsulfanylmethyl)-N-[3-(4-methyl-benzylidene-hydrazinocarbonyl)-thiophen-2-yl]-benzamide], 12.4 µM.

As to `O=C(Nc1sccc1C(=O)N/N=C/c1ccc(F)cc1)c1cccc(CSCCCO)c1` [Compound 660, N-[3-(4-Fluoro-benzylidene-hydrazinocarbonyl)-thiophen-2-yl]-3-(3-hydroxy-propylsulfanylmethyl)-benzamide], the IC50 was determined as 18.7 µM. The same measure, in the same setting: the result for `O=C(Nc1sccc1C(=O)N/N=C/c1cccc(F)c1)c1cccc(CSCCCO)c1` [Compound 661, N-[3-(3-Fluoro-benzylidene-hydrazinocarbonyl)-thiophen-2-yl]-3-(3-hydroxy-propylsulfanylmethyl)-benzamide] reads less than 10 µM. Consider `O=C(Nc1sccc1C(=O)N/N=C/c1ccc(Cl)c(C(F)(F)F)c1)c1cccc(CSCCCO)c1` [Compound 662, N-[3-(4-Chloro-3-trifluoromethyl-benzylidene-hydrazinocarbonyl)-thiophen-2-yl]-3-(3-hydroxy-propylsulfanylmethyl)-benzamide], for which the IC50 turned out to be 3.2 µM.

As to `COc1ccc(/C=N/NC(=O)c2ccsc2NC(=O)c2cccc(CSCCCO)c2)cc1` [Compound 663, 3-(3-Hydroxy-propylsulfanylmethyl)-N-[3-(4-methoxy-benzylidene-hydrazinocarbonyl)-thiophen-2-yl]-benzamide], the IC50 came out at 137 µM.

Regarding `CCN(CC)CCN(C)Cc1cccc(C(=O)Nc2sccc2C(=O)N/N=C/c2ccc(C)c(C)c2)c1` [Compound 664, 3-{[(2-Diethylamino-ethyl)-methyl-amino]-methyl}-N-[3-(3,4-dimethyl-benzylidene-hydrazinocarbonyl)-thiophen-2-yl]-benzamide], the IC50 was found to be 15.1 µM. `CCN(CC)CCN(C)Cc1cccc(C(=O)Nc2sccc2C(=O)N/N=C/c2ccc(C)cc2)c1` [Compound 665, 3-{[(2-Diethylamino-ethyl)-methyl-amino]-methyl}-N-[3-(4-methyl-benzylidene-hydrazinocarbonyl)-thiophen-2-yl]-benzamide] showed an inhibition at 300 µM (phosphate uptake, oocytes expressing rat NaPi-2b, 300 μM, determined from inhibition curve) of 82.3%.
